# System: NOMO1
# Test: cell viability relative to DMSO control; higher = less cytotoxic
# Details: 48 h
# In short: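 NOMO1 or SEM (500 cells/well) or P12-Ichikawa (1000 cells/well) leukemia cells were adapted for at least four passages in each medium. They were seeded in 1536-well plates (5 μl) and pin-dosed with library compounds in DMSO over an 11-point threefold series, 47 μM to 0.79 nM. CellTiter-Glo One luminescence was read after 48 h at 37°C. Viability is the per-plate percentage relative to DMSO wells, with cell-free wells as background.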
# [1] = HPLM + 10% dialyzed FBS, 0.000781 µM
# [2] = HPLM + 10% dialyzed FBS, 0.00234 µM
# [3] = HPLM + 10% dialyzed FBS, 0.00702 µM
# [4] = HPLM + 10% dialyzed FBS, 0.0211 µM
# [5] = HPLM + 10% dialyzed FBS, 0.0632 µM
# [6] = HPLM + 10% dialyzed FBS, 0.19 µM
# [7] = HPLM + 10% dialyzed FBS, 0.569 µM
# [8] = HPLM + 10% dialyzed FBS, 1.71 µM
# [9] = HPLM + 10% dialyzed FBS, 5.12 µM
# [10] = HPLM + 10% dialyzed FBS, 15.4 µM
# [11] = HPLM + 10% dialyzed FBS, 46.1 µM
# [12] = RPMI 5 mM glucose + 10% FBS, 0.000781 µM
# [13] = RPMI 5 mM glucose + 10% FBS, 0.00234 µM
# [14] = RPMI 5 mM glucose + 10% FBS, 0.00702 µM
# [15] = RPMI 5 mM glucose + 10% FBS, 0.0211 µM
# [16] = RPMI 5 mM glucose + 10% FBS, 0.0632 µM
# [17] = RPMI 5 mM glucose + 10% FBS, 0.19 µM
# [18] = RPMI 5 mM glucose + 10% FBS, 0.569 µM
# [19] = RPMI 5 mM glucose + 10% FBS, 1.71 µM
# [20] = RPMI 5 mM glucose + 10% FBS, 5.12 µM
# [21] = RPMI 5 mM glucose + 10% FBS, 15.4 µM
# [22] = RPMI 5 mM glucose + 10% FBS, 46.1 µM
# [23] = RPMI 5 mM glucose + 10% dialyzed FBS, 0.000781 µM
# [24] = RPMI 5 mM glucose + 10% dialyzed FBS, 0.00234 µM
# [25] = RPMI 5 mM glucose + 10% dialyzed FBS, 0.00702 µM
# [26] = RPMI 5 mM glucose + 10% dialyzed FBS, 0.0211 µM
# [27] = RPMI 5 mM glucose + 10% dialyzed FBS, 0.0632 µM
# [28] = RPMI 5 mM glucose + 10% dialyzed FBS, 0.19 µM
# [29] = RPMI 5 mM glucose + 10% dialyzed FBS, 0.569 µM
# [30] = RPMI 5 mM glucose + 10% dialyzed FBS, 1.71 µM
# [31] = RPMI 5 mM glucose + 10% dialyzed FBS, 5.12 µM
# [32] = RPMI 5 mM glucose + 10% dialyzed FBS, 15.4 µM
# [33] = RPMI 5 mM glucose + 10% dialyzed FBS, 46.1 µM
Structure (SMILES),cell viability [1],cell viability [2],cell viability [3],cell viability [4],cell viability [5],cell viability [6],cell viability [7],cell viability [8],cell viability [9],cell viability [10],cell viability [11],cell viability [12],cell viability [13],cell viability [14],cell viability [15],cell viability [16],cell viability [17],cell viability [18],cell viability [19],cell viability [20],cell viability [21],cell viability [22],cell viability [23],cell viability [24],cell viability [25],cell viability [26],cell viability [27],cell viability [28],cell viability [29],cell viability [30],cell viability [31],cell viability [32],cell viability [33]
COC(=O)[C@H](c1ccccc1Cl)N1CCc2sccc2C1,103%,110%,127%,117%,109%,104%,117%,37.4%,39.5%,24.8%,24.8%,87.8%,109%,89.1%,92.3%,103%,93.7%,97.4%,21.7%,20.9%,15.9%,14%,81%,90.5%,101%,94.4%,100%,103%,102%,36.6%,22.8%,23.6%,22.2%
C1COC(NC(C2CC2)C2CC2)=N1,73.1%,94%,93%,90.6%,92.3%,83.5%,97.3%,95.5%,94.8%,96.3%,64.8%,75.3%,92.5%,79.2%,87.6%,89.7%,90.8%,89.5%,80.1%,90.7%,91.1%,84.5%,79.2%,86.1%,83.9%,85%,86.4%,94.1%,97.6%,81.4%,82.7%,89.2%,73%
C[C@H](Cc1ccc(O)c(O)c1)[C@@H](C)Cc1ccc(O)c(O)c1,130%,119%,118%,117%,126%,133%,134%,132%,42%,99.6%,18.4%,141%,114%,112%,122%,117%,109%,119%,114%,111%,104%,57.5%,119%,121%,124%,107%,104%,114%,113%,111%,57%,94.1%,27.9%
C[C@@H](N)C1CC[C@@H](CC1)C(=O)NC2=CC=NC=C2 (stereo not given in full),98.8%,114%,117%,126%,123%,136%,128%,132%,119%,113%,100%,114%,97.3%,114%,106%,101%,120%,122%,104%,123%,93.5%,93.1%,113%,105%,110%,91%,105%,116%,115%,113%,113%,94.1%,90%
CCCCCN(CCC12CC3CC(CC(C3)C1)C2)C(=O)NCCCc1ccncc1,111%,120%,116%,114%,115%,109%,108%,93.7%,111%,112%,97.3%,98.2%,110%,107%,110%,116%,113%,97.8%,113%,96.5%,107%,98.4%,104%,102%,119%,120%,116%,107%,116%,111%,116%,94.1%,99.1%
N#Cc1ccnc(N2C(=O)CC[C@H]2C(=O)N(c2cncc(F)c2)[C@H](C(=O)NC2CC(F)(F)C2)c2ccccc2Cl)c1,90.6%,92.3%,96.6%,114%,101%,115%,67.7%,49%,19.6%,26.2%,30.7%,93.2%,95.6%,116%,95.1%,90.1%,92%,94.6%,79.2%,16.8%,16.5%,14.5%,97.2%,97.1%,96.4%,101%,97.6%,90.7%,94.8%,88.2%,42.2%,32.1%,18.8%
Cc1cccc(-c2[nH]c(C(C)(C)C)nc2-c2ccc3c(c2)OCO3)n1,94.7%,105%,107%,114%,115%,95.4%,104%,114%,103%,24%,11.9%,97.4%,106%,100%,93.4%,101%,92.7%,100%,92.6%,86.3%,11.5%,8.98%,101%,92.1%,94.4%,94.3%,107%,86.9%,92.8%,97.2%,97.3%,13.9%,9.64%
N=C(N)NC(=N)N1CCOCC1,102%,84.7%,106%,103%,106%,111%,111%,103%,103%,89.6%,87.1%,95.2%,93.1%,115%,101%,111%,106%,102%,97.1%,98.7%,84.4%,87.4%,96.4%,93.3%,89.8%,88.8%,106%,104%,101%,87.2%,87.9%,86%,89.7%
N[C@@H](Cc1ccc(O)c(O)c1)C(=O)O,121%,133%,117%,118%,144%,131%,122%,136%,131%,116%,55.3%,,,,,,,,,,,,,,,,,,,,,,
N#Cc1ccc(NC(=O)Nc2ccccc2Br)c2nn[nH]c12,,,,,,,,,,,,101%,122%,102%,107%,117%,119%,122%,114%,107%,120%,119%,94.1%,106%,106%,105%,101%,113%,123%,109%,105%,101%,115%
Cc1ccc([S+](=O)([O-])Nc2cc(Cl)ccc2C(=O)Nc2nc(-c3ccccc3)cs2)cc1,122%,117%,129%,118%,121%,124%,128%,119%,103%,119%,9.35%,,,,,,,,,,,,,,,,,,,,,,
Cc1cccc2c1CC[C@H](CN1CCC(c3c(Cl)cccc3Cl)CC1)C[C@@H]2O,99.8%,115%,116%,126%,133%,154%,150%,136%,116%,97.9%,83.9%,,,,,,,,,,,,103%,124%,130%,148%,129%,145%,143%,103%,82%,70.2%,61.5%
COc1cc(Cl)cn2c(-c3cccc(NC4CNC4)n3)cnc12,123%,115%,118%,142%,152%,148%,141%,150%,129%,129%,111%,,,,,,,,,,,,,,,,,,,,,,
COc1ccc(C2(C#N)CCC(C(=O)O)CC2)cc1OC1CCCC1 (stereo not given),91%,109%,95%,116%,120%,123%,113%,113%,111%,102%,108%,82.4%,91.8%,84.9%,87.5%,94.1%,96.8%,96.3%,85.7%,101%,89.6%,90.6%,99.5%,105%,98.3%,102%,98.2%,95%,107%,101%,101%,100%,105%
CC(C)(Sc1ccc(CCN(CCCCC2CCCCC2)C(=O)NC2CCCCC2)cc1)C(=O)O,107%,120%,101%,111%,109%,109%,118%,108%,101%,114%,101%,102%,120%,113%,110%,120%,120%,107%,118%,98%,95.6%,118%,106%,102%,102%,114%,113%,104%,112%,108%,93.7%,114%,98.8%
NCCc1ccc(O)c(O)c1,118%,124%,123%,119%,131%,112%,131%,125%,104%,27.5%,7.83%,120%,112%,115%,127%,121%,124%,113%,110%,110%,54.3%,14%,,,,,,,,,,,
O=C1CCCC(=O)C1C(=O)c1ccc(C(F)(F)F)cc1[N+](=O)[O-],138%,110%,105%,107%,103%,106%,111%,118%,113%,93.6%,54.3%,102%,105%,99.2%,99.9%,104%,98.4%,103%,99.4%,98.4%,99.4%,92.8%,103%,108%,105%,90.1%,92%,111%,105%,113%,96.7%,95.3%,92.6%
CC(C)[N+]1(C)C2CCC1CC(OC(=O)C(CO)c1ccccc1)C2.O.[Br-] (stereo not given),129%,118%,120%,117%,123%,119%,148%,134%,101%,58.8%,21.9%,103%,105%,95.1%,118%,108%,123%,101%,116%,109%,92.3%,48.6%,115%,115%,119%,110%,132%,114%,127%,121%,105%,93.2%,60.7%

# Reference: the supplement of paper PMC11451515
